From patent US9604933B2, “Pyrazolochalcones as potential anticancer agents” (COUNCIL OF SCIENTIFIC AND INDUSTRIAL RESEARCH, priority 2013, dated 2017)
Where two headings read alike, the source gives them in different places.

How the values were obtained:
[1] = system: SW-620; assay: NCI SRB cytotoxicity, colon SW-620; assay type: cell-based; conditions: Homo sapiens, 48 h exposure
Method: (§1) The pyrazolochalcones (7e, 8e, 10e, 11e, 12e, 13e and 8f) have been tested against fifty nine human tumor cell lines derived from nine cancer types (leukemia, non-small cell lung cancer, colon cancer, CNS cancer, melanoma, ovarian cancer, renal cancer, prostate cancer and breast cancer) as per the NCI protocol. For each compound, dose response curves for individual cell lines have been measured at a minimum of five concentrations at 10 fold dilutions. A protocol of 48 h continuous drug exposure has been used, and a sulforhodamine B (SRB) protein assay has been used to estimate cell viability or growth. The concentration for 50% cell growth inhibition (GI50), 50% cell death (LC50, 50% growth) and total cell growth inhibition (TGI, 0% growth) values were tabulated (Table-1). DMSO was used as control to calculate the values of GI50, LC50 and TGI. The compounds 7e, 8e, 10e, 11e, 12e, 13e and 8f has been evaluated for their in vitro cytotoxicity in […] cell lines from nine human cancer types of leukemia (K-562, SR), non-small cell lung (Hop-62, NCI-H226, NCI-H522), colon (HCT-116, HCT-15, HCC-2998), CNS (SF-539), melanoma (SK-MEL-5, UACC-62, M14), ovarian (IGROV1), renal (A498), prostate (PC3) and breast (BT-549, MDA-MB-435, HS578T) origin. The results are expressed as percent of cell growth determined relative to that of untreated control cells (Table 2).

[2] = system: Ovarian; assay: NCI SRB cytotoxicity, ovarian panel average; assay type: cell-based, human; conditions: average of cell lines
Method: as §1
(§2) Each cancer type represents the average of six to eight different cancer cell lines.

[3] = system: TK-10; assay: NCI SRB cytotoxicity, renal TK-10; assay type: cell-based; conditions: Homo sapiens, 48 h exposure
Method: as §1

[4] = system: MDA-MB-435; assay: NCI SRB cytotoxicity, melanoma MDA-MB-435; assay type: cell-based; conditions: Homo sapiens, Melanoma panel MDA-MB-435, 48 h exposure
Method: as §1

[5] = system: OVCAR-4; assay: NCI SRB cytotoxicity, ovarian OVCAR-4; assay type: cell-based; conditions: Homo sapiens, 48 h exposure
Method: as §1

[6] = system: MDA-MB-435; assay: NCI SRB cytotoxicity, breast panel MDA-MB-435; assay type: cell-based; conditions: Homo sapiens, 48 h exposure
Method: as §1

[7] = system: CAKI-1; assay: NCI SRB cytotoxicity, renal CAKI-1; assay type: cell-based; conditions: Homo sapiens, 48 h exposure
Method: as §1

[8] = system: HS 578T; assay: NCI SRB cytotoxicity, breast HS 578T; assay type: cell-based; conditions: Homo sapiens, 48 h exposure
Method: as §1

[9] = system: UACC-257; assay: NCI SRB cytotoxicity, melanoma UACC-257; assay type: cell-based; conditions: Homo sapiens, 48 h exposure
Method: as §1

[10] = system: LOX IMVI; assay: NCI SRB cytotoxicity, melanoma LOX IMVI; assay type: cell-based; conditions: Homo sapiens, 48 h exposure
Method: as §1

[11] = system: A498; assay: NCI SRB cytotoxicity, renal A498; assay type: cell-based; conditions: Homo sapiens, 48 h exposure
Method: as §1

[12] = system: UO-31; assay: NCI SRB cytotoxicity, renal UO-31; assay type: cell-based; conditions: Homo sapiens, 48 h exposure
Method: as §1

[13] = system: SK-MEL-28; assay: NCI SRB cytotoxicity, melanoma SK-MEL-28; assay type: cell-based; conditions: Homo sapiens, 48 h exposure
Method: as §1

[14] = system: NCIH322M; assay: NCI SRB cytotoxicity, non-small cell lung NCIH322M; assay type: cell-based; conditions: Homo sapiens, NCI-H322M, 48 h exposure
Method: as §1

[15] = system: 786-0; assay: NCI SRB cytotoxicity, renal 786-0; assay type: cell-based; conditions: Homo sapiens, 48 h exposure
Method: as §1

[16] = system: CCRF-CEM; assay: NCI SRB cytotoxicity, leukemia CCRF-CEM; assay type: cell-based; conditions: Homo sapiens, 48 h exposure
Method: as §1

[17] = system: Prostate; assay: NCI SRB cytotoxicity, prostate panel average; assay type: cell-based, human; conditions: average of cell lines
Method: as §1, §2

[18] = system: A549/ATCC; assay: NCI SRB cytotoxicity, non-small cell lung A549/ATCC; assay type: cell-based; conditions: Homo sapiens, 48 h exposure
Method: as §1

[19] = system: SNB-75; assay: NCI SRB cytotoxicity, CNS SNB-75; assay type: cell-based; conditions: Homo sapiens, 48 h exposure
Method: as §1

[20] = system: Leukemia; assay: NCI SRB cytotoxicity, leukemia panel average; assay type: cell-based, human; conditions: average of cell lines
Method: as §1, §2

[21] = system: HCT-116; assay: NCI SRB cytotoxicity, colon HCT-116; assay type: cell-based; conditions: Homo sapiens, 48 h exposure
Method: as §1

[22] = system: NCI-H460; assay: NCI SRB cytotoxicity, non-small cell lung NCI-H460; assay type: cell-based; conditions: Homo sapiens, 48 h exposure
Method: as §1

[23] = system: SF-268; assay: NCI SRB cytotoxicity, CNS SF-268; assay type: cell-based; conditions: Homo sapiens, 48 h exposure
Method: as §1

[24] = system: Non-small cell lung; assay: NCI SRB cytotoxicity, non-small cell lung panel average; assay type: cell-based, human; conditions: average of cell lines
Method: as §1, §2

[25] = system: RPMI-8226; assay: NCI SRB cytotoxicity, leukemia RPMI-8226; assay type: cell-based; conditions: Homo sapiens, 48 h exposure
Method: as §1

[26] = system: SK-MEL-5; assay: NCI SRB cytotoxicity, melanoma SK-MEL-5; assay type: cell-based; conditions: Homo sapiens, 48 h exposure
Method: as §1

[27] = system: NCI-H23; assay: NCI SRB cytotoxicity, non-small cell lung NCI-H23; assay type: cell-based; conditions: Homo sapiens, 48 h exposure
Method: as §1

[28] = system: RXF 393; assay: NCI SRB cytotoxicity, renal RXF 393; assay type: cell-based; conditions: Homo sapiens, 48 h exposure
Method: as §1

[29] = system: KM12; assay: NCI SRB cytotoxicity, colon KM12; assay type: cell-based; conditions: Homo sapiens, 48 h exposure
Method: as §1

[30] = system: OVCAR-5; assay: NCI SRB cytotoxicity, ovarian OVCAR-5; assay type: cell-based; conditions: Homo sapiens, 48 h exposure
Method: as §1

[31] = system: Breast; assay: NCI SRB cytotoxicity, breast panel average; assay type: cell-based, human; conditions: average of cell lines
Method: as §1, §2

[32] = system: HOP-62; assay: NCI SRB cytotoxicity, non-small cell lung HOP-62; assay type: cell-based; conditions: Homo sapiens, 48 h exposure
Method: as §1

[33] = system: human tumor cell lines; assay: NCI SRB cytotoxicity, all fifty nine human tumor cell lines; assay type: cell-based; parameters: Log10 TGI mean graph midpoint (MG_MID): unit not given here; conditions: for GI50: Homo sapiens
Method: as §1
The mean graph midpoint values of Log10 TGI and Log10 LC50 as well as Log10 GI50 for compounds 7e, 8e, 10e, 11e, 12e, 13e and 8f is listed in Table-3. […] The mean graph mid points of Log10 TGI and Log10, LC50 have shown similar pattern to the log10 GI50 mean graph mid points.

[34] = system: NCI-H522; assay: NCI SRB cytotoxicity, non-small cell lung NCI-H522; assay type: cell-based; conditions: Homo sapiens, 48 h exposure
Method: as §1

[35] = system: IGROV1; assay: NCI SRB cytotoxicity, ovarian IGROV1; assay type: cell-based; conditions: Homo sapiens, IGROV-1, 48 h exposure
Method: as §1

[36] = Homo sapiens, read-out: Log10 LC50 (concentration in mol/L causing 50% cell death) (converted)

COc1ccc(C(=O)/C=C/c2cc(-c3ccc4c(c3)OCO4)n[nH]2)cc1OC [8f, (E)-3-(3-(benzo[d][1,3]dioxol-5-yl)-1H-pyrazol-5-yl)-1-(3,4-dimethoxyphenyl)prop-2-en-1-one]
GI50 [1]: 2050 nM | CC50 [2, 36]: 52500 nM | Log10 GI50 (concentration in mol/L causing 50% growth inhibition) [2]: −5.58 mol/L | Log10 TGI (concentration in mol/L causing total growth inhibition (0% growth)) [2]: −4.87 mol/L | GI50 [3]: 2800 nM | GI50 [4]: 3030 nM | GI50 [5]: 2110 nM | GI50 [6]: 1800 nM | GI50 [7]: 1900 nM | GI50 [8]: 2600 nM | GI50 [9]: 7060 nM | GI50 [10]: 1970 nM | GI50 [11]: 1550 nM | GI50 [12]: 2300 nM | GI50 [13]: 5760 nM | GI50 [14]: 2480 nM | GI50 [15]: 3120 nM | GI50 [16]: 2520 nM | CC50 [17, 36]: 31600 nM | Log10 GI50 (concentration in mol/L causing 50% growth inhibition) [17]: −5.66 mol/L | Log10 TGI (concentration in mol/L causing total growth inhibition (0% growth)) [17]: −5.05 mol/L | GI50 [18]: 2700 nM | GI50 [19]: 1980 nM | CC50 [20, 36]: 0.0001 mol/L | Log10 GI50 (concentration in mol/L causing 50% growth inhibition) [20]: −5.69 mol/L | Log10 TGI (concentration in mol/L causing total growth inhibition (0% growth)) [20]: −5.03 mol/L | GI50 [21]: 2430 nM | GI50 [22]: 1810 nM | GI50 [23]: 2530 nM | LC50 [24, 36]: 0.000513 mol/L | Log10 GI50 (concentration in mol/L causing 50% growth inhibition) [24]: −5.6 mol/L | Log10 TGI (concentration in mol/L causing total growth inhibition (0% growth)) [24]: −5.08 mol/L | GI50 [25]: 1030 nM | GI50 [26]: 6740 nM | GI50 [27]: 4120 nM | GI50 [28]: 2420 nM | GI50 [29]: 2860 nM | GI50 [30]: 3360 nM | CC50 [31, 36]: 39800 nM | Log10 GI50 (concentration in mol/L causing 50% growth inhibition) [31]: −4.76 mol/L | Log10 TGI (concentration in mol/L causing total growth inhibition (0% growth)) [31]: −5.05 mol/L | GI50 [32]: 2080 nM | GI50 ([33]; across fifty nine cell lines in nine cell panels, read-out: GI50 value range): 180 to 29200 nM | GI50 ([33]; against human tumor cell lines, read-out: Log10 GI50 mean graph midpoint (MG_MID) (converted)): 2750 nM | cytotoxicity ([33]; against cancer cell lines, in words): significant cytotoxicity | Log10 TGI mean graph midpoint (MG_MID) ([33]; against human tumor cell lines): −4.98 | LC50 ([33]; against human tumor cell lines, read-out: Log10 LC50 mean graph midpoint (MG_MID) (converted)): 43700 nM | GI50 [34]: 1820 nM | GI50 [35]: 2790 nM
